Here are results for 31 compounds from ChEMBL document CHEMBL3739403 (Bioorg Med Chem, 2016).

One test has as its target T1, Prothrombin (Homo sapiens, UniProt P00734). As to the kind of experiment: Inhibition of human thrombin preincubated for 10 mins using Ac-FVR-AMC as substrate by […] assay. The settings on record: read-out: IC50.
Take `Cn1c(CNc2ccc(C(=N)N)cc2)nc2cc(C(=O)N(CCC(=O)O)c3ccc(F)c(F)c3)ccc21`: the IC50 amounted to 3.95 nM. Same read-out and setting: the result for `Cn1c(CNc2ccc(C(=N)N)cc2)nc2cc(C(=O)N(CCC(=O)O)c3ccccc3C(F)(F)F)ccc21` reads 4.96 nM; that for `CCCCCCOC(=O)NC(=N)c1ccc(NCc2nc3cc(C(=O)N(CCC(=O)OCC)c4ccccn4)ccc3n2C)cc1` [DABIGATRAN ETEXILATE], 2.61 nM.

The test is the same for the next values; noted with them: read-out: pIC50 (converted).
Take `Cn1c(CNc2ccc(C(=N)N)cc2)nc2cc(C(=O)N(CCC(=O)O)c3ccc(F)c(F)c3)ccc21`: the IC50 was 3.98 nM. With `Cn1c(CNc2ccc(C(=N)N)cc2)nc2cc(C(=O)N(CCC(=O)O)c3ccccc3C(F)(F)F)ccc21`, the IC50 was 5.01 nM. Same read-out and setting: the result for `CCCCCCOC(=O)NC(=N)c1ccc(NCc2nc3cc(C(=O)N(CCC(=O)OCC)c4ccccn4)ccc3n2C)cc1` [DABIGATRAN ETEXILATE] reads 2.63 nM.

For a further test, the target named is T1, Prothrombin. The test can be described thus: Inhibition of thrombin (unknown origin).
Details: not given
Regarding `CCn1c(CNc2ccc(C(=N)N)cc2)nc2cc(C(=O)N(CCC(=O)O)c3ccccc3C(F)(F)F)ccc21`, the IC50 was 6.17 nM. `CCCCn1c(CNc2ccc(C(=N)N)cc2F)nc2cc(C(=O)N(CCC(=O)O)c3ccc(F)c(Cl)c3)ccc21` showed an IC50 of 36.3 nM.

Compound `CC(C)n1c(CNc2ccc(C(=N)N)cc2)nc2cc(C(=O)N(CCC(=O)O)c3ccc(F)c(Cl)c3)ccc21` gave an IC50 of 18.6 nM. On to `Cn1c(CNc2ccc(C(=N)N)cc2)nc2cc(C(=O)N(CCC(=O)O)c3cccc(C(F)(F)F)c3)ccc21`, for which the IC50 was 12.3 nM.

Regarding `CCn1c(CNc2ccc(C(=N)N)cc2)nc2cc(C(=O)N(CCC(=O)O)c3cccc(C(F)(F)F)c3)ccc21`, the IC50 was 26.3 nM. In turn, `CCCCn1c(CNc2ccc(C(=N)N)cc2)nc2cc(C(=O)N(CCC(=O)O)c3ccc(F)c(Cl)c3)ccc21` showed an IC50 of 39.8 nM.

On to `N=C(N)c1ccc(NCc2nc3cc(C(=O)N(CCC(=O)O)c4ccc(F)c(Cl)c4)ccc3n2C2CC2)cc1`, for which the IC50 is 27.5 nM. The same measure, in the same setting: then `CCn1c(CNc2ccc(C(=N)N)cc2)nc2cc(C(=O)N(CCC(=O)O)c3cc(F)cc(F)c3)ccc21`, with 7.94 nM. Same read-out and setting: then `Cn1c(CNc2ccc(C(=N)N)cc2F)nc2cc(C(=O)N(CCC(=O)O)c3ccc(F)c(Cl)c3)ccc21`, with 11.5 nM; and `CCn1c(CNc2ccc(C(=N)N)cc2)nc2cc(C(=O)N(CCC(=O)O)c3ccccc3F)ccc21`, with 3.55 nM; and `Cn1c(CNc2ccc(C(=N)N)cc2)nc2cc(C(=O)N(CCC(=O)O)c3cccc(F)c3)ccc21`, with 5.37 nM. In turn, `CCCn1c(CNc2ccc(C(=N)N)cc2)nc2cc(C(=O)N(CCC(=O)O)c3ccc(F)c(Cl)c3)ccc21` showed an IC50 of 11 nM. The same measure, in the same setting: then `Cc1ccnc(N(CCC(=O)O)C(=O)c2ccc3c(c2)nc(CNc2ccc(C(=N)N)cc2F)n3C)c1`, with 24 nM. On the same count and under the same terms, the result for `CCCCCn1c(CNc2ccc(C(=N)N)cc2)nc2cc(C(=O)N(CCC(=O)O)c3ccc(F)c(Cl)c3)ccc21` reads 117 nM; that for `CCn1c(CNc2ccc(C(=N)N)cc2)nc2cc(C(=O)N(CCC(=O)O)c3ccc(F)c(F)c3)ccc21`, 9.55 nM; that for `CC(C)n1c(CNc2ccc(C(=N)N)cc2F)nc2cc(C(=O)N(CCC(=O)O)c3ccc(F)c(Cl)c3)ccc21`, 17.4 nM.

Turning to `N=C(N)c1ccc(NCc2nc3cc(C(=O)N(CCC(=O)O)c4ccc(F)c(Cl)c4)ccc3n2C2CC2)c(F)c1`, the IC50 is 26.9 nM. On to `CCn1c(CNc2ccc(C(=N)N)cc2)nc2cc(C(=O)N(CCC(=O)O)c3ccc(F)cc3)ccc21`, for which the IC50 is 4.27 nM. The same measure, in the same setting: then `Cn1c(CNc2ccc(C(=N)N)cc2)nc2cc(C(=O)N(CCC(=O)O)c3cc(F)cc(F)c3)ccc21`, with 10.5 nM. On the same count and under the same terms, the result for `CCn1c(CNc2ccc(C(=N)N)cc2F)nc2cc(C(=O)N(CCC(=O)O)c3cc(C)ccn3)ccc21` reads 19.1 nM.

As for `CCCn1c(CNc2ccc(C(=N)N)cc2F)nc2cc(C(=O)N(CCC(=O)O)c3ccc(F)c(Cl)c3)ccc21`, the IC50 is 28.2 nM.

With `CCn1c(CNc2ccc(C(=N)N)cc2)nc2cc(C(=O)N(CCC(=O)O)c3cccc(F)c3)ccc21`, the IC50 was 7.41 nM. On the same count and under the same terms, then `CCn1c(CNc2ccc(C(=N)N)cc2)nc2cc(C(=O)N(CCC(=O)O)c3ccc(OC(F)(F)F)cc3)ccc21`, with 117 nM; and `CCCCCn1c(CNc2ccc(C(=N)N)cc2F)nc2cc(C(=O)N(CCC(=O)O)c3ccc(F)c(Cl)c3)ccc21`, with 174 nM. The same measure, in the same setting: the result for `CCn1c(CNc2ccc(C(=N)N)cc2)nc2cc(C(=O)N(CCC(=O)O)c3ccc(F)c(Cl)c3)ccc21` reads 8.91 nM; that for `CCn1c(CNc2ccc(C(=N)N)cc2)nc2cc(C(=O)N(CCC(=O)O)c3ccc(C(F)(F)F)cc3)ccc21`, 200 nM; that for `Cn1c(CNc2ccc(C(=N)N)cc2)nc2cc(C(=O)N(CCC(=O)O)c3ccc(F)c(Cl)c3)ccc21`, 8.32 nM. Still for that read-out and setting: the result for `CCn1c(CNc2ccc(C(=N)N)cc2F)nc2cc(C(=O)N(CCC(=O)O)c3ccc(F)c(Cl)c3)ccc21` reads 2.04 nM.
